Read-outs that look alike come from different tables or passages of the source.

The subject of the experiment is Bursaphelenchus xylophilus. It is filed as in vivo. The note with it: 24 hours.

Turning to `O=S(=O)(F)F` [sulfuryl fluoride], the “effect of killing nematodes” value (control area: sulfuryl fluoride alone, 50 g/m^3, 15° C.) is 89%. Regarding `CI` [methyl iodide], for the setting “control area: methyl iodide as is, injected through injection syringe, 96 g/m^3, 10° C.”, the “effect of killing nematodes” value is listed as 98%.
